According to US10514377B2, “Method of diagnosing and therapeutically treating a patient for a traumatic brain injury” (priority 2010, dated 2019):

Test system: rats subjected to impact acceleration injury
Assay: Impact acceleration injury (traumatic brain injury) in rats, GFAP immuno-fluorescence of cortex 24 hours after injury
Type: in vivo
Conditions: rat
Excerpt: FIG. 3 through 5 represent respectively, representative photomicrographs of three groups of ten rats which have been subjected to the development of traumatic brain injury through impact by a weight under experimental conditions described hereinafter.
Low and high magnification micrographs of glial fibrillary acidic proteins (GFAP) immuno-fluorescence using a laser-scanning confocal microscope produced FIGS. 3 through 5. The GFAP antibody labels the intermediate filaments of most astrocytes in the brain. These photomicrographs, which were taken 24 hours after the animals were subjected to impact acceleration injury, show areas of cortex slightly lateral to the midline. The pial surface is at the top of the images and the midline is to the left of all images. In the sham animals shown in FIG. 3, a normal distribution of GFAP labeled astrocytes is seen, including their endfeet which surround the neurovasculature. […] There is also a patchy loss of GFAP-labeled astrocytes throughout the cortex and the vasculature shown by the arrow heads (as contrasted with the full arrows) appears damaged. It should also be noted that many of the remaining astrocytes appear to be hypertrophied. The loss of all GFAP-immunoreactivity and appearance of astrocyte hypertrophy are indicative of a neuroinflammatory response to injury.
In order to provide additional information regarding the invention, experiments were performed on animals who were subjected to the impact acceleration injury described hereinbefore, with the animals subsequently being sacrificed and the brains examined 24 hours after the injury. Tests were performed with body specimens which were urinary excretion and also with blood, either blood plasma or blood serum. In each group of ten animals, all had their urine tested and six had blood tested. With the sham animals, the mean urinary excretion values of marinobufagenin were 423±130 (SE)pgMBG/mg creatinine. With the impact acceleration injury rats, the mean urinary excretion values of marinobufagenin were […]. […] These tests confirm the evaluation of marinobufagenin in both urine and blood when an impact acceleration injury is present.

[1] = 120 μg bolus about 90 minutes after injury, 24 hours after injury, FIG. 5

C[C@]12CC[C@H](O)C[C@H]1CC[C@@H]1[C@@H]2CC[C@]2(C)[C@@H](c3ccc(=O)oc3)C[C@H]3O[C@]132 [resibufogenin]
GFAP immunoreactivity [1]: reduce the decrease in GFAP immunoreactivity | appearance of GFAP labeled astrocytes (normal vs hypertrophied) [1]: a greater proportion of GFAP labeled astrocytes have a normal, rather than a hypertrophied appearance | glial scar in cortex [1]: no observed glial scar | alterations after impact acceleration injury (glial scar, patchy loss of GFAP-labeled astrocytes, damaged vasculature, astrocyte hypertrophy) (120 μg bolus of resibufogenin about 90 minutes after injury, cortex examined 24 hours after injury, FIG. 5 vs FIG. 4): most of these alterations are ameliorated
